Calls of active or inactive are those of the source. The calls are words filed in the database; no cut-off is given here.

As usually defined, the IC50 is the concentration needed to halve the response being measured. By EC50 is commonly meant the concentration at which the effect is half-maximal. A lower EC50 goes with higher potency in that assay. One may read the Emax as the size of the effect at its maximum, as opposed to the concentration needed.

For assay [1], the target named is T1, Mu-type opioid receptor (Homo sapiens, UniProt P35372). The assay can be described thus: Binding affinity at cloned human mu-opioid receptor.
T1 sequence (P35372 whole entry): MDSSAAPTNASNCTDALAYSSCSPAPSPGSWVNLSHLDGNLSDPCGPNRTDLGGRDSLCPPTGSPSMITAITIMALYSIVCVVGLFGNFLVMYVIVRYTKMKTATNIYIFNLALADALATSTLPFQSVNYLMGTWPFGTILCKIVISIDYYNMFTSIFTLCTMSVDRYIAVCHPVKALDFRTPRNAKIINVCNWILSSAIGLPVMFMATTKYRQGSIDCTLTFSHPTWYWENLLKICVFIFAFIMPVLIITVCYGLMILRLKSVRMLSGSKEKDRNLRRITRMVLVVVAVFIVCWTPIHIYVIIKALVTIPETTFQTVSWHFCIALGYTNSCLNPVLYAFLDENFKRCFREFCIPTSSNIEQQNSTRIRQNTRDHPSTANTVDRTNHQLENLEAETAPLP
The target of assay [2] is T2, Delta-type opioid receptor (Homo sapiens, UniProt P41143). The assay can be described thus: Agonist potency using GTP-gamma [35S]- binding assay for delta-opioid receptor.
T2 sequence (P41143 whole entry): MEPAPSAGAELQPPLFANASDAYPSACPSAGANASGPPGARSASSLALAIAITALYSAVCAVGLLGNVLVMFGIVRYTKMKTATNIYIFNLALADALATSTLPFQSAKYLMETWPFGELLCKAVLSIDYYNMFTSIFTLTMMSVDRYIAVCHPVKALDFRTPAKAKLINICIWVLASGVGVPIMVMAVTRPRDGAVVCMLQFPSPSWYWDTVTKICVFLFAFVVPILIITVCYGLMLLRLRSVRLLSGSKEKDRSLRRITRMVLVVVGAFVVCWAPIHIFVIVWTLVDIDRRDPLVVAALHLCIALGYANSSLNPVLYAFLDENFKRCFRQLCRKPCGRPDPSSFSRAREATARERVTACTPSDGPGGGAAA
Assay [3] has as its target T2, Delta-type opioid receptor. The experiment in a line: Binding affinity at cloned human delta-opioid receptor.
For assay [4], the target named is T3, Kappa-type opioid receptor (Homo sapiens, UniProt P41145). The assay can be described thus: Binding affinity at cloned human opioid receptor kappa 1.
T3 sequence (P41145 whole entry): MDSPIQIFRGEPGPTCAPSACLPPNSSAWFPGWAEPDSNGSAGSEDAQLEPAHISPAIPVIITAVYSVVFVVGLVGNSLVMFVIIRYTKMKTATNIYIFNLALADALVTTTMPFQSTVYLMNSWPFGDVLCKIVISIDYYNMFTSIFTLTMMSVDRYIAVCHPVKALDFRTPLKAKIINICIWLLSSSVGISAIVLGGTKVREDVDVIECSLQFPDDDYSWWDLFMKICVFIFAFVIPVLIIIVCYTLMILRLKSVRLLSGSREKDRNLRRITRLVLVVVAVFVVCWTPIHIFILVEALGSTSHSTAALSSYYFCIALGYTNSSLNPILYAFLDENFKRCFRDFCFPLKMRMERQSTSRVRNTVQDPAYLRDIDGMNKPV
The target in assay [5] is T1, Mu-type opioid receptor. The assay can be described thus: Agonist potency using GTP-gamma [35S]- binding assay for mu-opioid receptor; Inactive.
The target of assay [6] is T3, Kappa-type opioid receptor. The assay can be described thus: Agonist potency using GTP-gamma [35S]- binding assay for opioid receptor kappa 1.
The target in assay [7] is T3, Kappa-type opioid receptor. The experiment in a line: Compound was tested for maximum stimulation of opioid receptor kappa 1 by GTP-gamma [35S]- binding assay.
In assay [8] the target is T2, Delta-type opioid receptor. The experiment in a line: Agonist potency using GTP-gamma [35S]- binding assay for delta-opioid receptor; Inactive.
The target in assay [9] is T1, Mu-type opioid receptor. The experiment in a line: Agonist potency using GTP-gamma [35S]- binding assay for mu-opioid receptor.
Assay [10] addresses T3, Kappa-type opioid receptor.

In the case of `Cc1cc(O)cc(C)c1C[C@H](N)C(=O)N1Cc2ccccc2C[C@H]1COCc1ccccc1`, the figures for the IC50 (on Mu-type opioid receptor [1]; in assay [3]; in [4]) were 12.5 nM, 0.33 nM and 64.6 nM, respectively. Further, in assay [2], the EC50 was 0.97 nM. Also, the NA entry at Mu-type opioid receptor [5] is “inactive”.
`Cc1cc(O)cc(C)c1C[C@H](N)C(=O)N1Cc2ccccc2C[C@H]1CNC(=O)NC(C)(C)C`: the IC50 on Mu-type opioid receptor [1] is 61.8 nM; in [3], 0.17 nM; in assay [4] it was 1.3 nM. In addition, the EC50 in [2] came out at 0.65 nM; in assay [6] it was 6.9 nM. The NA result at Mu-type opioid receptor [5] is “inactive”. In assay [7], this compound showed an Emax of 96.9%.
Turning to `Cc1cc(O)cc(C)c1C[C@H](N)C(=O)N1Cc2ccccc2C[C@H]1CNC(=O)NC12CC3CC(CC(C3)C1)C2`, the IC50 on Mu-type opioid receptor [1] was 1.1 nM; in assay [3], 0.29 nM; in assay [4] it was 4.1 nM. Also, the NA result (at Mu-type opioid receptor [5]; in [8]) was “inactive” each time. In [6], the EC50 was found to be 11.5 nM. In addition, the Emax in assay [7] was 81.7%.
For `C=CCOC[C@@H]1Cc2ccccc2CN1C(=O)[C@@H](N)Cc1c(C)cc(O)cc1C`, the IC50 on Mu-type opioid receptor [1] is 108 nM; in [3], 0.98 nM; in [4], 1450 nM. Also, the NA entry in [8] is “inactive”.
Regarding `Cc1cc(O)cc(C)c1C[C@H](N)C(=O)N1Cc2ccccc2C[C@H]1CN`, the IC50 at Mu-type opioid receptor [1] came to 113 nM; in assay [3] it was 4.9 nM; in assay [4], 521 nM. Moreover, the NA entry in [8] is “inactive”.
Take `Cc1cc(O)cc(C)c1C[C@H](N)C(=O)N1Cc2ccccc2C[C@H]1C/N=C(/S)NC(C)(C)C`: the Emax in assay [7] was 99.6%.
Take `CC(=N)NC[C@@H]1Cc2ccccc2CN1C(=O)[C@@H](N)Cc1c(C)cc(O)cc1C`: the concentration for half-maximal inhibition (IC50) was found to be 33.2 nM on Mu-type opioid receptor [1], 9.9 nM in [3] and 996 nM in [4].
For `CC(=O)OC[C@@H]1Cc2ccccc2CN1C(=O)[C@@H](N)Cc1c(C)cc(O)cc1C`, the IC50 on Mu-type opioid receptor [1] turned out to be 4.7 nM; in assay [3], 1.1 nM; in assay [4], 3100 nM. In addition, the NA entry (on Mu-type opioid receptor [5]; in assay [8]) was “inactive” in each case.
In the case of `Cc1cc(O)cc(C)c1C[C@H](N)C(=O)N1Cc2ccccc2C[C@H]1CNCc1ccccc1`, the figures for the EC50 (on Mu-type opioid receptor [9]; in assay [2]; in assay [6]) were 37.1 nM, 0.92 nM and 6.8 nM, respectively. For the same compound, the IC50 turned out to be 0.65 nM at Mu-type opioid receptor [1], 0.41 nM in assay [3] and 1.5 nM in assay [4]. The compound further gave an Emax in assay [7] of 100%.
In the case of `Cc1cc(O)cc(C)c1C[C@H](N)C(=O)N1Cc2ccccc2C[C@H]1CN=[N+]=[N-]`, the IC50 at Mu-type opioid receptor [1] amounted to 94.6 nM; in assay [3], 1.1 nM; in assay [4], 1070 nM. Also, the EC50 in assay [2] is 49.4 nM.
On to `Cc1cc(O)cc(C)c1C[C@H](N)C(=O)N1Cc2ccccc2C[C@H]1CNC(=O)c1ccccc1`, for which a half-maximal response at Mu-type opioid receptor [9] (EC50) required 109 nM. Moreover, the results for the concentration for half-maximal inhibition (IC50) (at Mu-type opioid receptor [1]; in assay [3]; in assay [4]) were 0.98 nM, 0.24 nM and 307 nM, respectively. Besides, the NA result in [8] was “inactive”.
Turning to `Cc1cc(O)cc(C)c1C[C@H](N)C(=O)N1Cc2ccccc2C[C@H]1CN=C(N)N`, the results for the IC50 (at Mu-type opioid receptor [1]; in assay [3]; in assay [4]) were 12.8 nM, 3.2 nM and 345 nM, respectively.
Regarding `Cc1cc(O)cc(C)c1C[C@H](N)C(=O)N1Cc2ccccc2C[C@H]1CN(C)C`, the IC50 on Mu-type opioid receptor [1] came out at 83.2 nM; in assay [3], 0.97 nM; in assay [4], 793 nM. For the same compound, in assay [8], the NA entry is “inactive”.
Taken in the same sequence, the figures for `Cc1cc(O)cc(C)c1C[C@H](N)C(=O)N1Cc2ccccc2C[C@H]1CNC(=O)C(C)(C)C` were 25.3 nM, 0.79 nM, 394 nM and “inactive”.
As for `COC[C@@H]1Cc2ccccc2CN1C(=O)[C@@H](N)Cc1c(C)cc(O)cc1C`, the IC50 at Mu-type opioid receptor [1] was found to be 458 nM; in assay [3], 1.3 nM; in assay [4], 2510 nM. For the same compound, in [8], the NA entry is “inactive”.
For the compound `CC(=O)NC[C@@H]1Cc2ccccc2CN1C(=O)[C@@H](N)Cc1c(C)cc(O)cc1C`, the IC50 came to 16.1 nM on Mu-type opioid receptor [1], 0.79 nM in assay [3] and 9380 nM in assay [4]. In assay [2], this compound gave a half-maximal effective concentration (EC50) of 1.5 nM.
As to `Cc1cc(O)cc(C)c1C[C@H](N)C(=O)N1Cc2ccccc2C[C@H]1CNC(=S)NC(C)(C)C`, the results for the IC50 (at Mu-type opioid receptor [1]; in [3]; in assay [4]) were 36 nM, 0.22 nM and 2.8 nM, respectively. Besides, the figures for the EC50 in [2] and in [6] were 0.32 nM and 24.3 nM, respectively.
With `Cc1cc(O)cc(C)c1C[C@H](N)C(=O)N1Cc2ccccc2C[C@H]1C`, the IC50 was 3 nM on Mu-type opioid receptor [1], 1.7 nM in assay [3] and 764 nM in assay [4]. Also, in [8], the NA entry was “inactive”.
As for `Cc1cc(O)cc(C)c1C[C@H](N)C(=O)N1Cc2ccccc2C[C@H]1CNC(=O)Nc1ccccc1`, the concentration giving a half-maximal response (EC50) was found to be 18.8 nM on Mu-type opioid receptor [9], 0.75 nM in assay [2] and 161 nM in assay [6]. Besides, the IC50 is 1 nM at Mu-type opioid receptor [1], 0.13 nM in assay [3] and 4.8 nM in assay [4]. In assay [7], this compound came in with an Emax of 81.7%.
For the compound `CCNC(=O)NC[C@@H]1Cc2ccccc2CN1C(=O)[C@@H](N)Cc1c(C)cc(O)cc1C`, the IC50 is 169 nM at Mu-type opioid receptor [1], 0.99 nM in [3] and 321 nM in assay [4]. This compound displayed an EC50 in assay [2] of 5.7 nM.
Consider `CC(C)[C@H](NC(=O)[C@H](CC(=O)O)NC(=O)[C@H](Cc1ccccc1)NC(=O)[C@@H](C)NC(=O)[C@@H](N)Cc1ccc(O)cc1)C(=O)N[C@H](C(=O)NCC(N)=O)C(C)C`, for which, in [10], the NA result was “inactive”.
With `Cc1cc(O)cc(C)c1C[C@H](N)C(=O)N1Cc2ccccc2C[C@H]1CNCC(C)(C)C`, the IC50 is 1.3 nM on Mu-type opioid receptor [1], 0.99 nM in assay [3] and 1.5 nM in [4]. Besides, the results for the EC50 in assay [2] and in [6] were 2.8 nM and 1.4 nM, respectively. In addition, the NA entry at Mu-type opioid receptor [5] was “inactive”. In assay [7], this compound yielded a maximum response (Emax) of 102%.
Turning to `Cc1cc(O)cc(C)c1C[C@H](N)C(=O)N1Cc2ccccc2C[C@H]1CO`, the IC50 at Mu-type opioid receptor [1] is 421 nM; in assay [3], 2 nM; in [4] it was more than 10000 nM. For the same compound, the NA entry (at Mu-type opioid receptor [5]; in [8]) was “inactive” in each case.
Regarding `Cc1cc(O)cc(C)c1C[C@H](N)C(=O)N1Cc2ccccc2C[C@H]1CNC(=S)Nc1ccccc1`, the IC50 came out at 5.4 nM on Mu-type opioid receptor [1], 0.27 nM in assay [3] and 51.4 nM in assay [4]. Further, the midpoint of the response in [2], the EC50, lay at 1.7 nM.

The values are drawn from ChEMBL document CHEMBL1134689, “Novel C-terminus modifications of the Dmt-Tic motif: a new class of dipeptide analogues showing altered pharmacological profiles toward the opioid receptors” (J Med Chem, 2001).
